What was measured:
[1] = test system: male Sprague-Dawley rats; test: Y-maze test after 7-day chronic i.p. CPA injection; assay type: in vivo, rat
From the text: All animals were housed and treated humanely following the guidelines from the following governing bodies: National Research Council (US) Committee for the Update of the Guide for the Care and Use of Laboratory Animals (Washington DC, USA, 2011); Canadian Council on Animal Care (CCAC); and the University of Saskatchewan Animal Research Ethics Board (AREB), which approved our Animal Use Protocol (#20070090 and #20170079). The animals were housed in cages of two, with access to food pellets and water ad libitum. The four treatments of the Sprague-Dawley rats consisted of the following: 1. Control (0.1% DMSO in 0.9% saline); 2. CPA; 3. […] Drugs were dissolved at 3 mg/mL in DMSO, and each drug was administered to the animals by daily i.p. injections (3 mg/kg or 5 mg/kg body weight) for 7 consecutive days. […] Then, on days 8 and 9 following the final injections, the animals were subjected to several behavioral tests. The Y-maze or the modified Y-maze is a rodent behavior test used to assess short-term spatial memory based on the innate inclination of animals to explore new areas not previously seen. In this study, the Y-maze test is used to assess short-term memory, especially hippocampal-dependent spatial memory. The maze is shaped like a “Y”, with each arm oriented at a 120° angle from one another. The arms are 50 cm in length, 15 cm in width and 35 cm in depth. For the first trial, which lasts 15 min, the animal is placed at the beginning of the “Start arm” and is free to explore this arm and another one (referred to as the “Old arm”), while the remaining arm (“New arm”) is blocked. This trial should give the animal time to explore and become acquainted with the maze’s two arms. After a resting period of 90 min, the blocked arm is opened, and the animal is placed again at the “Start arm”. […] This trial is then used to calculate the percentage of time the animals spent in each arm. A video camera was used to record the animal movement in both trials. Each experiment was repeated at least fifteen times per treatment and the average of each treatment is presented in the bar graphs as average means ± standard error of the mean (SEM).

[2] = test system: male Sprague-Dawley rats; test: Open field test after 7-day chronic i.p. CPA injection; assay type: in vivo, rat
From the text: All animals were housed and treated humanely following the guidelines from the following governing bodies: National Research Council (US) Committee for the Update of the Guide for the Care and Use of Laboratory Animals (Washington DC, USA, 2011); Canadian Council on Animal Care (CCAC); and the University of Saskatchewan Animal Research Ethics Board (AREB), which approved our Animal Use Protocol (#20070090 and #20170079). The animals were housed in cages of two, with access to food pellets and water ad libitum. The four treatments of the Sprague-Dawley rats consisted of the following: 1. Control (0.1% DMSO in 0.9% saline); 2. CPA; 3. […] Drugs were dissolved at 3 mg/mL in DMSO, and each drug was administered to the animals by daily i.p. injections (3 mg/kg or 5 mg/kg body weight) for 7 consecutive days. […] Then, on days 8 and 9 following the final injections, the animals were subjected to several behavioral tests. The open field is a general locomotor test that detects anxiety and willingness to explore. The test is conducted in a white open cube measuring 50 cm in length, 50 cm in width and 35 cm in depth. The bottom field is gridded in 4x4 squares at 12.5 cm, with a center square in the middle of the field. The animal is placed in the center square and is free to explore the entirety of the field for 15 min. […] This trial is then used to calculate the percentage of time the animals spent in the center zone (red square) and the total fecal boli count. A video camera was used to record the animal movement in this test. The open field test was conducted after a 1 h resting period from the time the Y-maze second trial was completed. Each experiment was repeated at least ten times per treatment and the average of each treatment is presented in the bar graphs as average means ± SEM.

[3] = CPA 3 mg/kg i.p. daily for 7 days, alone

| Structure (SMILES) | Y-maze, time spent in the start arm ([1]; 3 mg/kg i.p. with 3 mg/kg CPA, 7 days) | Y-maze, cognitive deficits ([1]; 5 mg/kg i.p. with 3 mg/kg CPA, 7 days) | Y-maze, percentage of time spent in the novel arm ([1]; 3 or 5 mg/kg i.p. co-administered with 3 mg/kg CPA, 7 days) | Open field, fecal boli count ([2]; 3 and 5 mg/kg i.p. with 3 mg/kg CPA, 7 days) | Open field, exploratory behavior and anxiety ([2]; co-administered with 3 mg/kg CPA, 7 days) | Y-maze, hippocampal-dependent spatial memory [1, 3] | Open field, percentage of time spent in the center square [2, 3] |
| --- | --- | --- | --- | --- | --- | --- | --- |
| Cn1c(=O)c2c(nc(CCCCCCNC3CCc4ccccc43)n2C)n(C)c1=O (stereo not shown) [C8–6–I] | approximately 45% | significantly ameliorated the cognitive deficits caused by CPA | attenuated the learning deficits caused by CPA | significantly decreased the fecal boli count | improved the exploratory behavior and reduced the anxiety caused by CPA |  |  |
| OC[C@H]1O[C@@H](n2cnc3c(NC4CCCC4)ncnc32)[C@H](O)[C@@H]1O [CPA, N^6-Cyclopentyladenosine, reference compound] |  |  |  |  |  | induced hippocampal-dependent spatial memory deficits | significantly lower percentage of time spent in the center square |
